# Measured values from patent US20250034158A1, “TEXAPHYRIN DERIVATIVES FOR MANGANESE CHEMOTHERAPY, PHOTOACOUSTIC IMAGING, AND PHOTOTHERMAL THERAPY” (BOARD OF REGENTS, THE UNIVERSITY OF TEXAS SYSTEM, priority 2020, published 2025).
# What was measured:
# [1] = tested on: C4-2 tumor; assay: In vivo PA imaging, prostate tumor mouse model, tail vein injection; details: 500 μM, 200 μL, 5 μmol/kg, after 24 h
# Protocol: (§1) Male BALB/c nude mice (18±2 g, 4-6 weeks old) were purchased from a commercial source and used according to standard animal guidelines for the care and use of laboratory animals with appropriate ethical oversight board approval.
# Human prostate cancer cell lines C4-2 were purchased from commercial sources and cultured in Dulbecco's Modified Eagle Medium (DMEM) (Life Technologies, NY, USA) supplemented with 10% fetal bovine serum (FBS; Cyclone, UT, USA). Cells were incubated at 37° C. in a humidified atmosphere containing 5% CO2. For C4-2 tumor inoculation, C4-2 cells (˜1×10^6) suspended in PBS were injected under the nude mice epidermis of the right flank. Animals were observed every day for any behavioral abnormalities. […]
# (§2) An optical parametric oscillator (OPO) laser source (Innolas GmbH, Bonn, Germany) emitting 8 ns pulsed lasers was coupled to a multimode optical fiber with a 1500 μm core diameter for the photoacoustic signal excitation. […] This led to the vibration of the tissue, which generated ultrasonic waves that could be recorded by a commercial 128-element linear array transrectal ultrasound transducer. […]
# To test further the PA imaging potential of MMn, in vivo experiments were performed using a prostate tumor mouse model as shown in FIG. 19. […] Normalized PA intensity values were then calculated. […]
# [2] = tested on: C4-2 tumor; assay: In vivo stability of PA signal after direct injection at the tumor site; set-up: species or system mouse; details: 250 μM, 50 μL, 0.625 μmol/kg, direct injection into tumor, 0-60 min
# Protocol: Laser light was used to illuminate the tumor during data collection: 800 nm, 20 mJ for ICG and 725 nm, 20 mJ for MMn.
# Laser wavelength: 800 nm, Laser fluence: 20 mJ/cm^2. Percentage of PA signal after 1 hour=46%
# Laser wavelength: 725 nm, Laser fluence: 20 mJ/cm^2. Percentage of PA signal after 1 hour=91%
# as §1
# Human prostate cancer cell lines C4-2 were purchased from commercial sources and cultured in Dulbecco's Modified Eagle Medium (DMEM) (Life Technologies, NY, USA) supplemented with 10% fetal bovine serum (FBS; Cyclone, UT, USA). […]
# as §2
# To confirm the in vivo stability of MMn for PA imaging, MMn was injected directly at the tumor site and the PA signal was measured over time (0-60 mins) with concurrent US imaging. […]
# [3] = Photostability under photoirradiation (UV-Vis absorption over time); type: physicochemical; details: fluence ~18 mJ/cm^2
# Source text: Measurements were taken at 5-minute intervals. Fluence: 20 mJ/cm^2. Laser wavelength: 780 nm.
# Measurements were taken at 5-minute intervals. Fluence: 20 mJ/cm^2. Laser wavelength: 725 nm.
# Measurements were taken at 5-minute intervals. Fluence: 20 mJ/cm^2. Laser wavelength: 740 nm.
# Photostability is also relevant factor to consider for a potential PA contrast agent for clinical applications.
structure (smiles),measurement,setting,value
"CC1(C)C(/C=C/C=C/C=C/C=C2\N(CCCCS(=O)(=O)O)c3ccc4ccccc4c3C2(C)C)=[N+](CCCCS(=O)(=O)[O-])c2ccc3ccccc3c21 [ICG, Indocyanine green]",increase in normalized PA signal intensity at the tumor site relative to pre-injection,[1],No significant increase
same,PA signal remaining at tumor site after 1 hour,[2],46%
same,change in absorption at 780 nm over photoirradiation,"[3]; 40 μM, 30 minutes",90%
same,photostability upon photoirradiation,"[3]; ICG: 100 μM, 20 minutes, 780 nm",poor photostability
